Experiments:
[1] = tested on: CD4+ T-cells isolated from ova s/c BALB/c mice spleen; test: Automated patch clamp of CD4+ T cells with 600 nM GABA; format: cell-based, mouse; settings: increasing concentrations of compound, 3 seconds
Description: Direct interaction between compounds and CD4^+ T cells may be investigated by electrophysiology. Therefore, CD4^+ T cells may be isolated from the spleen of asthmatic mice and treated with compounds during an automated patch clamp experiment.
To determine the effect of compounds on lymphocytes, CD4^+ T cells from Ova S/C mice were isolated and their interaction with compounds was measured by automated patch clamp. Splenocytes from ova s/c BALB/c mice were prepared following BD Biosciences instructions for preparation of murine splenocytes and red blood cell lysed using BD Pharm Lyse™ lysing solution (BD Biosciences, San Jose, Calif.). Cells were maintained in suspension in RPMI 1640 medium with L-glutamine (Thermo Fisher Scientific Inc., Rockford, Ill.) supplemented with 10% (v/v) fetal bovine serum, 10 μM 2-mercaptoethanol and 1% penicillin/streptomycin in the presence or absence of 100 μg/mL ovalbumin. The cells were maintained in 5% CO2, 95% humidified air at 37° C. for 48 hours. The IonFlux plate layout consists of units of 12 wells: two wells contain intracellular solution (ICS containing […], 1 mM CaCl2, 1 mM MgCl2, 11 mM EGTA, 10 mM HEPES, pH 7.2 with CsOH), one contains cells diluted in extracellular solution (ECS containing 140 mM NaCl, 5 mM […] KCl, 2 mM CaCl2, 1 mM MgCl2, 5 mM D-glucose monohydrate, and 10 mM HEPES, pH 7.4 with NaOH), eight contain the compounds of interest diluted in ECS, and one well is for waste collection. Cells are captured from suspension by applying suction to microscopic channels in ensemble recording arrays. Once the array is fully occupied, the applied suction breaks the membranes of captured cells, which establishes whole cell voltage clamp. For compound applications, pressure is applied to the appropriate compound wells, which introduces the compound into the extracellular solution rapidly flowing over the cells. For recording GABAAR induced currents, cell arrays were voltage clamped at a hyperpolarizing holding potential of −50 mV. Prior to use on the automated patch clamp, cells were centrifuged at 380 g for 5 minutes and resuspended gently in ECS. This was repeated two more times before the cells were dispensed into the plate. GABA and muscimol were diluted to appropriate concentrations in ECS to appropriate concentrations before application and data recorded. […] The concentration-dependent current responses of CD4+ T-cells in the presence of 600 nM GABA and increasing concentration of compounds were carried out with an N of 16 and normalized to the current response of 600 nM GABA.

HEK293 = test: Cytotoxicity, CellTiter-Glo cell viability assay, kidney cells; format: cell-based, human; settings: human, HEK293 (HEK293T) human embryonic kidney cells
Description: The cytotoxicity of compounds may be evaluated by treating HEK293 human embryonic kidney cells with increasing concentrations of compounds for 24-48 hours followed by the quantification of living cells using Cell-Titer Glo (Promega).
Compounds with increased cytotoxicity can be identified using an in vitro cytotoxicity assay. Therefore, human embryonic kidney 293T (HEK293T) cell lines were purchased (ATCC) and cultured in 75 cm2 flasks (CellStar). Cells were grown in DMEM/High Glucose (Hyclone, #SH3024301) media to which non-essential amino acids (Hyclone, #SH30238.01), 10 mM HEPES (Hyclone, #SH302237.01), 5×106 units of penicillin and streptomycin (Hyclone, #SV30010), and 10% of heat inactivated fetal bovine serum (Gibco, #10082147) were added. Cells were harvested using 0.05% Trypsin (Hyclone, #SH3023601). The cell viability assay was evaluated using CellTiter-Glo™ Luminescent Cell Viability Assay Kit (Promega, Madison, Wis.), which contains luciferase and all its substrate except ATP. The controls for the cytotoxicity assay used were (E)-10-(bromotriphenylphosphoranyl)decyl 4-(4-(tert-butyl)phenyl)-4-oxobut-2-enoate (400 μM in DMSO, positive control) and DMSO (negative control). All luminescence readings were performed on a Tecan Infinite M1000 plate reader. Small volume transfers were performed on the Tecan Freedom EVO liquid handling system with a 100 nL pin tool transfer (V&P Scientific). Serial dilutions were done in 96-well polypropylene plates (Corning, #3365) and assays were conducted in 384-well white optical bottom plates. The assays were carried out in quadruplet in three independent runs. The data were normalized to the controls and if possible analyzed by nonlinear regression (GraphPad Prism).

Row | SMILES | GABA-induced membrane current of CD4+ T-cells [1] | LD50 HEK293 (Kidney) (HEK293) [µM]
1 | CCOC(=O)c1ncn2c1[C@@H]1CCCN1C(=O)c1cc(O)ccc1-2 [RJ-02-50, ethyl (S)-7-hydroxy-9-oxo-11,12,13,13a-tetrahydro-9H-benzo[e]imidazo[5,1-c]pyrrolo[1,2-a][1,4]diazepine-1-carboxylate] | potentiated the GABA-induced membrane current more than SH-053-2F′F—R-CH3-Acid | >400
2 | C#Cc1ccc2c(c1)C(c1ccccc1F)=N[C@H](C)c1c(C(=O)O)ncn1-2 [SH-053-2′F-R-CH3-Acid, (R)-8-ethynyl-6-(2-fluorophenyl)-4-methyl-4H-benzo[f]imidazo[1,5-a][1,4]diazepine-3-carboxylic acid] | RJ-02-50 potentiated the GABA-induced membrane current more than SH-053-2F′F—R-CH3-Acid | >400
3 | C[C@H]1N=C(c2ccccc2F)c2cc(Br)ccc2-n2cnc(C(=O)O)c21 [GL-II-93, (R)-8-bromo-6-(2-fluorophenyl)-4-methyl-4H-benzo[f]imidazo[1,5-a][1,4]diazepine-3-carboxylic acid] | evoked a very pronounced GABA-induced transmembrane current | >400
4 | O=C1c2cc(O)ccc2-n2cnc(-c3cnco3)c2[C@@H]2CCCN12 [RJ-03-30, (S)-7-hydroxy-1-(oxazol-5-yl)-11,12,13,13a-tetrahydro-9H-benzo[e]imidazo[5,1-c]pyrrolo[1,2-a][1,4]diazepin-9-one] | evoked a very pronounced GABA-induced transmembrane current | >400
